Measurements published in ChEMBL document CHEMBL4152309, “N-phenylsulfonyl-3,5-bis(arylidene)-4-piperidone derivatives as activation NF-κB inhibitors in hepatic carcinoma cell lines” (Eur J Med Chem, 2018).
Calls of active or inactive are those of the source. The rule behind the calls is not given here.

What was measured:
HepG2 = assay: Cytotoxicity against human HepG2 cells assessed as reduction in cell viability after 24 hrs by MTT assay; type: functional, cell-based; settings: for IC50: HepG2, 24 h
[1] = Cytotoxicity against human HHL5 cells assessed as reduction in cell viability after 24 hrs by MTT assay; type: cell-based; settings: HHL-5, 24 h
QGY-7703 = assay: Cytotoxicity against human QGY7703 cells assessed as reduction in cell viability after 24 hrs by MTT assay; type: functional, cell-based; settings: for IC50: QGY-7703, 24 h
[2] = Cytotoxicity against mouse RAW264.7 cells assessed as cell viability at 10 uM after 24 hrs by MTT assay relative to control; type: cell-based; settings: read-out: Activity
L02 = assay: Cytotoxicity against human LO2 cells assessed as reduction in cell viability after 24 hrs by MTT assay; type: cell-based; settings: L02, 24 h
SMMC-7721 = assay: Cytotoxicity against human SMMC7721 cells assessed as reduction in cell viability after 24 hrs by MTT assay; type: functional, cell-based; settings: for IC50: SMMC-7721, 24 h
RAW264.7 [3] = assay: Anti-inflammatory activity in mouse RAW264.7 cells assessed as inhibition of LPS-induced TNFalpha secretion at 10 uM pretreated for 2 hrs followed by LPS stimulation and measured after 22 hrs by ELISA; type: functional, cell-based
RAW264.7 [4] = assay: Anti-inflammatory activity in mouse RAW264.7 cells assessed as inhibition of LPS-induced IL-6 secretion at 10 uM pretreated for 2 hrs followed by LPS stimulation and measured after 22 hrs by ELISA; type: functional, cell-based
RAW264.7 [5] = assay: Anti-inflammatory activity in mouse RAW264.7 cells assessed as inhibition of LPS-induced IL-6 secretion at 30 uM pretreated for 2 hrs followed by LPS stimulation and measured after 22 hrs by ELISA; type: functional, cell-based
RAW264.7 [6] = assay: Anti-inflammatory activity in mouse RAW264.7 cells assessed as inhibition of LPS-induced TNFalpha secretion at 30 uM pretreated for 2 hrs followed by LPS stimulation and measured after 22 hrs by ELISA; type: functional, cell-based

Row | Structure (SMILES) | IC50 (HepG2) | IC50 [1] | IC50 (QGY-7703) | viability at 24 h, 10 µM [2] | IC50 (L02) | IC50 (SMMC-7721) | inhibition (RAW264.7 [3]) | Activity (HepG2) | Activity (QGY-7703) | Activity (SMMC-7721) | inhibition (RAW264.7 [4]) | inhibition (RAW264.7 [5]) | inhibition (RAW264.7 [6])
1 | O=C1/C(=C/c2ccccc2F)CN(S(=O)(=O)c2ccc(F)cc2)C/C1=C\c1ccccc1F | 7.22 µM | 13.4 µM | 8.5 µM | > 80% | 19.1 µM | 8.37 µM | – | – | – | – | – | – | –
2 | N#Cc1ccc(/C=C2\CN(S(=O)(=O)c3ccc(F)cc3)C/C(=C\c3ccccc3F)C2=O)cc1 | 8.18 µM | 19 µM | 20.1 µM | > 80% | 21.9 µM | 10.2 µM | Active | – | – | – | – | – | –
3 | N#Cc1ccc(/C=C2\CN(S(=O)(=O)c3ccc(F)cc3)C/C(=C\c3ccc(C#N)cc3)C2=O)cc1 | 11.5 µM | 19.2 µM | 11.3 µM | > 80% | 18.9 µM | 20.1 µM | Active | – | – | – | – | – | –
4 | CC(=O)Nc1ccc(S(=O)(=O)N2C/C(=C\c3ccc(C#N)cc3)C(=O)/C(=C/c3ccc(C#N)cc3)C2)cc1 | 4.88 µM | 11.9 µM | 3.32 µM | > 80% | 14 µM | 7.12 µM | – | – | – | – | – | – | –
5 | COc1cc(/C=C2\CN(S(=O)(=O)c3ccc(NC(C)=O)cc3)C/C(=C\c3cc(OC)c(OC)c(OC)c3)C2=O)cc(OC)c1 | 4.14 µM | 13.5 µM | 2.02 µM | > 80% | 15.9 µM | 4.2 µM | – | – | – | – | – | – | –
6 | O=C1/C(=C/c2cccc([N+](=O)[O-])c2)CN(S(=O)(=O)c2ccc(F)cc2)C/C1=C\c1cccc([N+](=O)[O-])c1 | 8.76 µM | 11.2 µM | 11.9 µM | > 80% | 15.5 µM | 3.98 µM | – | – | – | – | – | – | –
7 | COc1cccc2c1C(=O)c1c(O)c3c(c(O)c1C2=O)C[C@@](O)(C(=O)CO)C[C@@H]3O[C@H]1C[C@H](N)[C@H](O)[C@H](C)O1 [DOXORUBICIN] | 1.01 µM | 9.27 µM | 1.44 µM | – | 7.87 µM | 1.47 µM | – | Dose-dependent effect | Dose-dependent effect | Dose-dependent effect | – | – | –
8 | COc1cc(/C=C/C(=O)CC(=O)/C=C/c2ccc(O)c(OC)c2)ccc1O [CURCUMIN] | 16 µM | 22.3 µM | 21.4 µM | – | 23.9 µM | 19.5 µM | – | – | – | – | – | – | –
9 | CC(=O)Nc1ccc(S(=O)(=O)N2C/C(=C\c3cccc([N+](=O)[O-])c3)C(=O)/C(=C/c3cccc([N+](=O)[O-])c3)C2)cc1 | 7.14 µM | 17.8 µM | 6.76 µM | > 80% | 15.8 µM | 8.42 µM | – | – | – | – | – | – | –
10 | COc1cc(/C=C2\CN(S(=O)(=O)c3ccc(F)cc3)C/C(=C\c3ccccc3F)C2=O)cc(OC)c1OC | 7.94 µM | 15.9 µM | 13.3 µM | > 80% | 17.6 µM | 6.34 µM | – | – | – | – | Active | – | –
11 | COc1cc(/C=C2\CN(S(=O)(=O)c3ccc(F)cc3)C/C(=C\c3cc(OC)cc(OC)c3)C2=O)cc(OC)c1 | 8.1 µM | 14.4 µM | 11.4 µM | > 80% | 19.8 µM | 8.21 µM | – | – | – | – | – | – | –
12 | O=C1/C(=C/c2cccc([N+](=O)[O-])c2)CN(S(=O)(=O)c2ccc(F)cc2)C/C1=C\c1ccccc1F | 7.04 µM | 17.8 µM | 14.9 µM | > 80% | 17 µM | 7.82 µM | – | – | – | – | – | – | –
13 | COc1cc(/C=C2\CN(S(=O)(=O)c3ccc(F)cc3)C/C(=C\c3ccccc3F)C2=O)cc(OC)c1 | 9.3 µM | 16 µM | 14 µM | > 80% | 18.4 µM | 6.89 µM | – | – | – | – | – | – | –
14 | S=C(S)N1CCCC1 | – | – | – | – | – | – | – | – | – | – | – | Active | Active
15 | COc1cc(/C=C2\CN(S(=O)(=O)c3ccc(NC(C)=O)cc3)C/C(=C\c3cc(OC)cc(OC)c3)C2=O)cc(OC)c1 | 7.54 µM | 18.1 µM | 11.3 µM | > 80% | 18.7 µM | 6.84 µM | – | – | – | – | – | – | –
16 | COc1cc(/C=C2\CN(S(=O)(=O)c3ccc(NC(C)=O)cc3)C/C(=C\c3cc(OC)c(OC)c(OC)c3)C2=O)cc(OC)c1OC | 3.89 µM | 13.8 µM | 1.9 µM | > 80% | 13.6 µM | 3.47 µM | – | – | – | – | – | – | –
17 | COc1cc(/C=C2\CN(S(=O)(=O)c3ccc(NC(C)=O)cc3)C/C(=C\c3cccc([N+](=O)[O-])c3)C2=O)cc(OC)c1OC | 3.34 µM | 14.2 µM | 2.55 µM | > 80% | 15.6 µM | 1.95 µM | – | – | – | – | – | – | –
18 | CC(=O)Nc1ccc(S(=O)(=O)N2C/C(=C\c3ccc(C#N)cc3)C(=O)/C(=C/c3ccccc3F)C2)cc1 | 4.96 µM | 11.3 µM | 2.05 µM | > 80% | 14.4 µM | 3.15 µM | – | – | – | – | – | – | –
19 | COc1cc(/C=C2\CN(S(=O)(=O)c3ccc(NC(C)=O)cc3)C/C(=C\c3ccccc3F)C2=O)cc(OC)c1OC | 4.75 µM | 12.2 µM | 2.68 µM | > 80% | 14 µM | 3.92 µM | – | – | – | – | – | – | –
20 | CC(=O)Nc1ccc(S(=O)(=O)N2C/C(=C\c3ccccc3F)C(=O)/C(=C/c3ccccc3F)C2)cc1 | 5.84 µM | 13.3 µM | 5.5 µM | > 80% | 11.6 µM | 7.49 µM | – | – | – | – | – | – | –
21 | COc1cc(/C=C2\CN(S(=O)(=O)c3ccc(NC(C)=O)cc3)C/C(=C\c3ccccc3F)C2=O)cc(OC)c1 | 6.8 µM | 15.3 µM | 3.69 µM | > 80% | 15.4 µM | 5.21 µM | – | – | – | – | – | – | –
22 | COc1cc(/C=C2\CN(S(=O)(=O)c3ccc(F)cc3)C/C(=C\c3cc(OC)c(OC)c(OC)c3)C2=O)cc(OC)c1OC | 4.2 µM | 11 µM | 2.22 µM | > 80% | 12.1 µM | 3.84 µM | – | – | – | – | – | – | –
23 | COc1cc(/C=C2\CN(S(=O)(=O)c3ccc(F)cc3)C/C(=C\c3cccc([N+](=O)[O-])c3)C2=O)cc(OC)c1OC | 3.25 µM | 11.1 µM | 3.27 µM | > 80% | 18.8 µM | 4.9 µM | – | – | – | – | – | – | –
24 | CC(=O)Nc1ccc(S(=O)(=O)N2C/C(=C\c3cccc([N+](=O)[O-])c3)C(=O)/C(=C/c3ccccc3F)C2)cc1 | 8.8 µM | 20 µM | 7.85 µM | > 80% | 18.4 µM | 10.2 µM | – | – | – | – | Active | – | –
25 | COc1cc(/C=C2\CN(S(=O)(=O)c3ccc(F)cc3)C/C(=C\c3ccc(C#N)cc3)C2=O)cc(OC)c1OC | 4.95 µM | 12.9 µM | 4.98 µM | > 80% | 12.9 µM | 4.12 µM | – | – | – | – | – | – | –
26 | COc1cc(/C=C2\CN(S(=O)(=O)c3ccc(F)cc3)C/C(=C\c3cc(OC)c(OC)c(OC)c3)C2=O)cc(OC)c1 | 3.89 µM | 11.3 µM | 5.2 µM | > 80% | 12.3 µM | 5.42 µM | Active | – | – | – | – | – | –
